Row | Compound | melting point [°C]
1 | Cc1cc(C)cc(Nc2ncc(-c3ccccc3)s2)c1 [Compound 2-3, N-(3,5-dimethylphenyl)-5-phenyl-1,3-thiazol-2-amine] | 144
2 | c1ccc(Nc2ncc(-c3ccccc3)o2)cc1 [Compound 5-4, N,5-diphenyl-1,3-oxazol-2-amine] | 169 to 170
3 | c1ccc(-c2cnc(Nc3ccc4c(c3)CCC4)o2)cc1 [Compound 5-5, N-(2,3-dihydro-1H-inden-5-yl)-5-phenyl-1,3-oxazol-2-amine] | 152
4 | FC(F)(F)c1cc(Nc2ncc(-c3ccccc3)o2)cc(C(F)(F)F)c1 [Compound 5-6, N-[3,5-bis(trifluoromethyl)-phenyl]-5-phenyl-1,3-oxazol-2-amine] | 203

Source: patent publication US20050228031A1, “Tyrosine kinase inhibitors” (priority 2004, published 2005)
